Source: patent EP3050567B1, “COMPOUND FOR ACTIVATING AMPK AND USES THEREOF” (Energenesis Biomedical Co., Ltd., priority 2013, dated 2015)

What was measured:
AMPK [1] = test: AMPK activation assay (phospho-AMPK Thr172 western blot) in C2C12 cells; assay type: cell-based, Mouse; details: 30 min
Experimental: (§1) Effects of adenine on AMPK activation were evaluated based on the phosphorylation of AMPK protein upon adenine treatment. Mouse muscle cell C2C12, mouse fibroblast 3T3, human liver carcinoma cell Hep G2, human breast adenocarcinoma cell line MCF7 and human colon adenocarcinoma grade II cell line HT29, human umbilical vein endothelial cell HUVEC, Human acute monocytic leukemiacell THP1, human macrophage cell U937, murine microglia cell BV-2, and mouse neuroblastoma cell Neuro2A and dermal papilla cell were cultured in high-glucose Dulbecco's modified Eagle's medium (DMEM) containing 10% fetal bovine serum (FBS), 4 mM L-glutamine, 2 mM sodium pyruvate and 1% penicillin/streptomycin (Invitrogen GibcoBRL, Carlsbad, Calif., USA) at 37°C, under 5% CO2. Cells were plated at 3 × 10^5 per well in 6-well plates. Twenty-four hours after plating, adenine was added to the culture media as indicated. After 30 min cells were lysed and subject to western blot analysis. Equal amount of protein from each sample was separated by SDS-PAGE and then electroblotted on to PVDF membranes. Membranes were blocked with 3% BSA in PBS for 60 min and incubated with an anti-phospho-AMPK (Thr172) antibody (1:2,000, Cell signaling) or an anti-AMPK antibody (1:2,000, Cell signaling) at 4°C for 16 h followed by the corresponding secondary antibody for 1 h at room temperature (RT). Immunoreactive bands were detected by enhanced chemiluminescence and recorded using Kodak film. The detected signals were scanned and then quantified using TotalLab Quant software (TotalLab).

AMPK [2] = test: AMPK activation assay (phospho-AMPK Thr172 western blot) in 3T3 cells; assay type: cell-based, mouse; details: 30 min
Experimental: as §1

AMPK [3] = test: AMPK activation assay (phospho-AMPK Thr172 western blot) in HT29 cells; assay type: cell-based, human; details: 30 min
Experimental: as §1

AMPK [4] = test: AMPK activation assay (phospho-AMPK Thr172 western blot) in THP1 cells; assay type: cell-based, Human; details: 30 min
Experimental: as §1

AMPK [5] = test: AMPK activation assay (phospho-AMPK Thr172 western blot) in U937 cells; assay type: cell-based, human; details: 30 min
Experimental: as §1

AMPK [6] = test: AMPK activation assay (phospho-AMPK Thr172 western blot) in dermal papilla cells; assay type: cell-based; details: 30 min
Experimental: as §1

muscle cell C2C12 = test: Glucose uptake in vitro (fluorescent glucose analog 2-NBDG); assay type: cell-based, Mouse; details: C2C12 cells, 30 min, mean±SEM of three experiments
Experimental: Effects of adenine on glucose uptake were analyzed by measuring the uptake of fluorescent glucose analog (2-NBDG, Molecular Probes) in muscle cell C2C12. C2C12 cells were treated with indicated concentrations of adenine for 30 min at 37°C, and then incubated with 500 µM of fluorescent glucose analog. After 5 min incubation at room temperature, cells were washed three times with Kreb-Hepes buffered solution and fixed in 70% alcohol. The fluorescence of glucose analog in cells was measured using a Fluorescence Microplate Reader System.

[7] = test system: TNBS-induced inflammatory bowel disease (IBD) mice model; test: TNBS induced inflammation in vivo (relapsing colitis); parameters: species or system C57BL/6J mice; details: daily IP adenine 0.01, 0.1, 5 or 30 mg/kg
Experimental: To further evaluate the effects of adenine on inflammatory response, TNBS-induced inflammatory bowel disease (IBD) mice model was used. C57BL/6J mice were maintained at 22° C, under a 12-h light/dark cycle. Relapsing colitis was induced with five escalating doses of TNBS, 0.5 mg, 0.75 mg, 1.0 mg, 1.25 mg, and 1.5 mg, in 50% ethanol were administered respectively for 0.1 mL per mouse weekly. After the third administration of TNBS, daily intraperitoneal injection of adenine (0.01, 0.1, 5 or 30 mg/kg body weight) or saline were given to mice. Two days after the fifth TNBS administration, mice were sacrificed. The inflammatory cytokines including TNF, INFγ and IL-17 from colonic lysates were evaluated by enzyme-linked immunosorbent assays.

3T3 cells = test: Fibroblast proliferation assay (trypan blue cell counting); assay type: cell-based, mouse; details: 72 h, mean±SEM of three experiments
Experimental: (§2) […] fibro blast cell line 3T3 were cultured in high-glucose Dulbecco's modified Eagle's medium (DMEM) containing 10% fetal bovine serum (FBS), 4 mM L-glutamine, 2 mM sodium pyruvate and 1% penicillin/streptomycin (Invitrogen GibcoBRL, Carlsbad, Calif., USA) at 37°C under 5% CO2. For cell proliferation assay, 3T3 cells were plated at 1 × 10^5 per well (6-well plate). Twenty-four hours after plating, cells were treated with indicated concentration of adenine for 72 h and the number of viable cells was counted. Cells were detached using trypsin-EDTA solution and stained with trypan blue. The living cells were counted using hemocytometer.

MCF7 = test: Cancer cell growth inhibition assay, MCF7; assay type: cell-based; details: Homo sapiens; MCF7 cell proliferation, 72 h, cell counting
Experimental: as §2, with “liver hepatocellular carcinoma” for “fibro blast”, “Hep G2, human breast adenocarcinoma cell line MCF7 and human colon adenocarcinoma grade II cell line HT29 were used to evaluate the effects of adenine on cell proliferation. Those cell lines were obtained from ATCC and” for “3T3”, “Cells” for “For cell proliferation assay, 3T3 cells”, “then followed by cell counting.” for “the number of viable cells was counted.”

HT29 = test: Cancer cell growth inhibition assay, HT29; assay type: cell-based; details: Homo sapiens, HT-29; HT29 cell proliferation, 72 h, cell counting
Experimental: as §2, with “liver hepatocellular carcinoma” for “fibro blast”, “Hep G2, human breast adenocarcinoma cell line MCF7 and human colon adenocarcinoma grade II cell line HT29 were used to evaluate the effects of adenine on cell proliferation. Those cell lines were obtained from ATCC and” for “3T3”, “Cells” for “For cell proliferation assay, 3T3 cells”, “then followed by cell counting.” for “the number of viable cells was counted.”

[8] = colonic lysates, dose-dependent, vs non-adenine treated mice

Nc1ncnc2nc[nH]c12 [Adenine, adenine]
AMPK activation (fold to control) (AMPK [1]; adenine 1 microM): 1.2 fold to control | AMPK activation (fold to control) (AMPK [1]; adenine 10 microM): 1.7 fold to control | AMPK activation (fold to control) (AMPK [1]; adenine 100 microM): 3.2 fold to control | AMPK activation (fold to control) (AMPK [1]; adenine 200 microM): 3.9 fold to control | AMPK activation (fold to control) (AMPK [1]; adenine 600 microM): 4.1 fold to control | AMPK activation (fold to control) (AMPK [2]; adenine 1 microM): 1.1 fold to control | AMPK activation (fold to control) (AMPK [2]; adenine 10 microM): 1.5 fold to control | AMPK activation (fold to control) (AMPK [2]; adenine 100 microM): 2.9 fold to control | AMPK activation (fold to control) (AMPK [2]; adenine 200 microM): 4.0 fold to control | AMPK activation (fold to control) (AMPK [2]; adenine 600 microM): 4.2 fold to control | AMPK activation (fold to control) (AMPK [3]; adenine 1 microM): 1.1 fold to control | AMPK activation (fold to control) (AMPK [3]; adenine 10 microM): 1.7 fold to control | AMPK activation (fold to control) (AMPK [3]; adenine 100 microM): 2.9 fold to control | AMPK activation (fold to control) (AMPK [3]; adenine 200 microM): 3.4 fold to control | AMPK activation (fold to control) (AMPK [3]; adenine 600 microM): 3.8 fold to control | AMPK activation (fold to control) (AMPK [4]; adenine 1 microM): 1.2 fold to control | AMPK activation (fold to control) (AMPK [4]; adenine 10 microM): 2.2 fold to control | AMPK activation (fold to control) (AMPK [4]; adenine 100 microM): 3.7 fold to control | AMPK activation (fold to control) (AMPK [4]; adenine 200 microM): 4.3 fold to control | AMPK activation (fold to control) (AMPK [4]; adenine 600 microM): 4.2 fold to control | AMPK activation (fold to control) (AMPK [5]; adenine 1 microM): 1.1 fold to control | AMPK activation (fold to control) (AMPK [5]; adenine 10 microM): 1.3 fold to control | AMPK activation (fold to control) (AMPK [5]; adenine 100 microM): 2.9 fold to control | AMPK activation (fold to control) (AMPK [5]; adenine 200 microM): 3.7 fold to control | AMPK activation (fold to control) (AMPK [5]; adenine 600 microM): 4.0 fold to control | AMPK activation (fold to control) (AMPK [6]; adenine 1 microM): 1.1 fold to control | AMPK activation (fold to control) (AMPK [6]; adenine 10 microM): 1.4 fold to control | AMPK activation (fold to control) (AMPK [6]; adenine 100 microM): 2.1 fold to control | AMPK activation (fold to control) (AMPK [6]; adenine 200 microM): 2.5 fold to control | AMPK activation (fold to control) (AMPK [6]; adenine 600 microM): 2.8 fold to control | Glucose uptake (% to control) (muscle cell C2C12; adenine 1 microM): 117±8.1 % to control | Glucose uptake (% to control) (muscle cell C2C12; adenine 10 microM): 261±13.4 % to control | Glucose uptake (% to control) (muscle cell C2C12; adenine 100 microM): 315±11.9 % to control | Glucose uptake (% to control) (muscle cell C2C12; adenine 600 microM): 338±16.5 % to control | body weight loss caused by TNBS [7]: rescued the body weight loss | level of IL-17 in colon [7, 8]: significantly reduced | level of INFγ in colon [7, 8]: significantly reduced | level of TNF in colon [7, 8]: significantly reduced | Cellnumber (% to control) (3T3 cells; adenine 10 microM): 91±2.7 % to control | Cellnumber (% to control) (3T3 cells; adenine 50 microM): 73±8.1 % to control | Cellnumber (% to control) (3T3 cells; adenine 100 microM): 64±5.3 % to control | Cellnumber (% to control) (3T3 cells; adenine 200 microM): 48±2.8 % to control | Cellnumber (% to control) (3T3 cells; adenine 500 microM): 33±6.4 % to control | Cellnumber (% to control) (3T3 cells; adenine 1000 microM): 27±11.3 % to control | IC50 (MCF7): 538 µM | IC50 (HT29): 532 µM
